One assay concerns the target T1, Recombinant EGFR (Homo sapiens, UniProt P00533).
T1 construct: purchased Invitrogen
Kind of assay: EGFR binding affinity (LanthaScreen TR-FRET). Particulars: Kinase Tracer 199, 5 h incubation. The essentials: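 Compounds were titrated against recombinant EGFR and binding was followed by LanthaScreen time-resolved FRET.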

Assay [1] relates to OCI-Ly10 human DLBCL cells. Kind of assay: OCI-Ly10 anti-proliferative activity (Resazurin). The conditions noted are these: OCI-Ly10 cells, 72 h compound treatment, Resazurin, read-out: Proliferation Assay OCI-Ly10-20% FBS. The class given is cell-based. A digest of the protocol:
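A separate untreated plate gave the Day 0 reading, measured by Resazurin fluorescence at 590 nm after 5 h. The average Day 0 value was subtracted from each treated well, and results were expressed as percent of DMSO control. IC50 values came from a log[Inhibitor] vs response Variable Slope fit in Graphpad prism.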

The target of assay [2] is T2, Recombinant BTK^C481S kinase (Homo sapiens, UniProt Q06187, C481S).
T2 construct: purchased SignalChem
Kind of assay: BTK C481S binding affinity (LanthaScreen TR-FRET). Particulars: Kinase Tracer 236, 5 h incubation. The essentials: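 BTK C481S tracer-displacement TR-FRET: 5 nM His-tagged kinase, 2 nM Eu anti-His antibody and 30 nM Kinase Tracer 236 incubated with titrated inhibitor for 5 h in Kinase Buffer A. Read at 340 nm excitation, 615/665 nm emission; IC50 from variable-slope log[inhibitor]–response fit.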
Background: Time-resolved FRET reads energy transfer from a long-lived donor to a nearby acceptor.

Assay [3] deals with T3, Recombinant BTK^WT kinase (Homo sapiens, UniProt Q06187).
T3 construct: purchased Invitrogen
Kind of assay: BTK WT binding affinity (LanthaScreen TR-FRET). The conditions noted are these: Kinase Tracer 236, 5 h incubation. A digest of the protocol:
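IC50 obtained by variable-slope fit of TR-FRET signal (ex 340 nm; em 615 and 665 nm) versus inhibitor concentration. Reaction held for 5 h in LanthaScreen Kinase Buffer A with 2.5 nM His-tagged BTK^WT, 15 nM Kinase Tracer 236 and 2 nM Eu anti-His antibody.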

Structures are written as SMILES. Like-named read-outs stand apart in the source and are kept apart here.

T2 sequence (Q06187 whole entry C481S): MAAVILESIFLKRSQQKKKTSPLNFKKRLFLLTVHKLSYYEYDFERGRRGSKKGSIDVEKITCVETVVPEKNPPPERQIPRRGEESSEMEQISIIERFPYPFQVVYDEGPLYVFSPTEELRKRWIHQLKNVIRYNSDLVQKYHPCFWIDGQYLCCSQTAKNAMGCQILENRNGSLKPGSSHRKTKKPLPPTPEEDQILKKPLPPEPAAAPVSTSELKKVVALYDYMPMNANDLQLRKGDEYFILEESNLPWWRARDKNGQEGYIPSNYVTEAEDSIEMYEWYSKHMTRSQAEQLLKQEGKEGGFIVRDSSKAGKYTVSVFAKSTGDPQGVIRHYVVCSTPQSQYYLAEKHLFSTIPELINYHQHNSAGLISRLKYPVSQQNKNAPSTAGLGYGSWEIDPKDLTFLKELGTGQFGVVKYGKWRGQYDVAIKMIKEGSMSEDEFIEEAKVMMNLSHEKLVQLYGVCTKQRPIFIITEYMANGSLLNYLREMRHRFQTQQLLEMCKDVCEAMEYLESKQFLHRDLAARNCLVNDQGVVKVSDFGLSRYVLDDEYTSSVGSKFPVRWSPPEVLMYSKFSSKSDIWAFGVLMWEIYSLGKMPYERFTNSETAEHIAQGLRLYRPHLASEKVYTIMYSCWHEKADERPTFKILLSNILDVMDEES
T1 sequence (P00533 25-1210): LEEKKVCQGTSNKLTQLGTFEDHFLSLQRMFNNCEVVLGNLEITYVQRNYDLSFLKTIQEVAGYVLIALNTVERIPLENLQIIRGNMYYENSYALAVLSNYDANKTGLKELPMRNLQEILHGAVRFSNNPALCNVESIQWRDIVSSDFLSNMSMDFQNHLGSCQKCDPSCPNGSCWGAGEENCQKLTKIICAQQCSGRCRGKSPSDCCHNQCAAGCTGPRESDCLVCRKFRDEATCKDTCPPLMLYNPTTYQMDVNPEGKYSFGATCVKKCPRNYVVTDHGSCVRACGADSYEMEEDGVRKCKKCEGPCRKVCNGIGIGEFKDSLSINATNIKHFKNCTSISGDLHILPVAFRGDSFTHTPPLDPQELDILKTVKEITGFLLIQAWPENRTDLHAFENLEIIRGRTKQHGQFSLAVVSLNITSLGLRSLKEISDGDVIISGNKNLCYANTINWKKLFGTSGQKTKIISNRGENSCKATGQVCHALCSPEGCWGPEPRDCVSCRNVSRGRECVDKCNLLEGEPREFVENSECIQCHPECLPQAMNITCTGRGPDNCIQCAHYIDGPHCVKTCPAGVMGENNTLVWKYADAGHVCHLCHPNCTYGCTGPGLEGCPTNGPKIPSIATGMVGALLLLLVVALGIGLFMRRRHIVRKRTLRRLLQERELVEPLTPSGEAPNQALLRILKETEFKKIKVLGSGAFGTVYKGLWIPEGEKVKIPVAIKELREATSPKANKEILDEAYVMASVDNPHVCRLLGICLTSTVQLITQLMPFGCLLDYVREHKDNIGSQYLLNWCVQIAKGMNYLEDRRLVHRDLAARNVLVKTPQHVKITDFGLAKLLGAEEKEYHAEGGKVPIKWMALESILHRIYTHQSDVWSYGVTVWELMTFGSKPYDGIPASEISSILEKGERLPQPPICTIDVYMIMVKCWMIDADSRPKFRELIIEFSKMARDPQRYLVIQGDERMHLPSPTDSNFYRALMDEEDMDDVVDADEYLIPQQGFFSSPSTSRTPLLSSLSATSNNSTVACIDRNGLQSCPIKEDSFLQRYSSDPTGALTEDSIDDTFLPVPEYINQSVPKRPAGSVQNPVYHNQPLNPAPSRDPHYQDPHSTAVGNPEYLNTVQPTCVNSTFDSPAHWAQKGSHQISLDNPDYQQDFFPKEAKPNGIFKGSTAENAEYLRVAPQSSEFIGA
T3 sequence (Q06187 whole entry): as the sequence (Q06187 whole entry C481S) above, with S481C counted along it

On to `COc1ccc(F)cc1C(=O)NCc1ccc(-c2nn(C3CCCOC3)c(N)c2C(N)=O)cc1` (stereo not drawn) [Example 113, 5-amino-3-[4-[[(5-fluoro-2-methoxy-benzoyl)amino]methyl]phenyl]-1-tetrahydropyran-3-yl-pyrazole-4-carboxamide], for which the IC50 is 1000 to 10000 nM at Recombinant EGFR; 10 to 100 nM in assay [1] (Homo sapiens, OCI-Ly10, 72 h); under 10 nM in assay [2]; under 10 nM in assay [3].

As to `COc1ccccc1C(=O)NCc1ccc(-c2nn(C3CCCC3)c(N)c2C(N)=O)cc1C` [Example 62, 5-amino-1-cyclopentyl-3-[4-[[(2-methoxybenzoyl)amino]methyl]-3-methyl-phenyl]pyrazole-4-carboxamide], the IC50 at Recombinant EGFR was 100 to 1000 nM; in assay [1] (Homo sapiens, OCI-Ly10, 72 h) it was 10 to 100 nM; in assay [2], under 10 nM; in assay [3], under 10 nM.

For the compound `COc1ccc(F)cc1C(=O)NCc1ccc(-c2nn(C(C3CCOCC3)C(F)(F)F)c(N)c2C(N)=O)cc1` (stereo not drawn) [Example 184, 5-amino-3-[4-[[(5-fluoro-2-methoxy-benzoyl)amino]methyl]phenyl]-1-(2,2,2-trifluoro-1-tetrahydropyran-4-yl-ethyl)pyrazole-4-carboxamide], the IC50 on Recombinant EGFR was over 10000 nM; in assay [1] (Homo sapiens, OCI-Ly10, 72 h) it was under 10 nM; in assay [2], under 10 nM; in assay [3], 10 to 100 nM.

For the compound `CCC(n1nc(-c2ccc(CNC(=O)c3cc(F)ccc3OC)cc2)c(C(N)=O)c1N)C(F)(F)F` (stereo not drawn) [Example 181, 5-amino-3-[4-[[(5-fluoro-2-methoxy-benzoyl)amino]methyl]phenyl]-1-[1-(trifluoromethyl)propyl]pyrazole-4-carboxamide], the IC50 on Recombinant EGFR is 1000 to 10000 nM; in assay [1] (Homo sapiens, OCI-Ly10, 72 h), 10 to 100 nM; in assay [2] it was under 10 nM; in assay [3] it was under 10 nM.

For the compound `COc1ccccc1C(=O)NCc1ccc(-c2nn(C3CCCC(=O)C3)c(N)c2C(N)=O)cc1` (stereo not drawn) [Example 12, 5-amino-3-[4-[[(2-methoxybenzoyl)amino]methyl]phenyl]-1-(3-oxocyclohexyl)pyrazole-4-carboxamide], the IC50 at Recombinant EGFR was over 10000 nM; in assay [1] (Homo sapiens, OCI-Ly10, 72 h), 1000 to 10000 nM; in assay [2], 100 to 1000 nM; in assay [3], 100 to 1000 nM.

`COc1ccc(F)cc1C(=O)NCc1ccc(-c2nn(C3CCNCC3(F)F)c(N)c2C(N)=O)cc1` (stereo not drawn) [Example 186, 5-amino-1-(3,3-difluoro-4-piperidyl)-3-[4-[[(5-fluoro-2-methoxy-benzoyl)amino]methyl]phenyl]pyrazole-4-carboxamide]: the IC50 was 1000 to 10000 nM on Recombinant EGFR; 10 to 100 nM in assay [1] (Homo sapiens, OCI-Ly10, 72 h); under 10 nM in assay [2]; under 10 nM in assay [3].

On to `COc1ccccc1C(=O)NCc1ccc(-c2nn(C3CCOCC3)c(N)c2C(N)=O)c(F)c1F` [Example 141, 5-amino-3-[2,3-difluoro-4-[[(2-methoxybenzoyl)amino]methyl]phenyl]-1-tetrahydropyran-4-yl-pyrazole-4-carboxamide], for which the IC50 on Recombinant EGFR is over 10000 nM; in assay [1] (Homo sapiens, OCI-Ly10, 72 h), 100 to 1000 nM; in assay [2] it was under 10 nM; in assay [3], 10 to 100 nM.

In the case of `COc1ccccc1C(=O)NCc1ccc(-c2nn(CC(O)C(C)(C)C)c(N)c2C(N)=O)cc1` (stereo not drawn) [Example 14, 5-Amino-1-(2-hydroxy-3,3-dimethyl-butyl)-3-[4-[[(2-methoxybenzoyl)amino]methyl]phenyl]pyrazole-4-carboxamide], the IC50 at Recombinant EGFR lay within 1000 to 10000 nM; in assay [1] (Homo sapiens, OCI-Ly10, 72 h), 100 to 1000 nM; in assay [2], 10 to 100 nM; in assay [3] it was 10 to 100 nM.

For the compound `COc1ccccc1C(=O)NCc1ccc(-c2nn(C3COC(C)(C)C3)c(N)c2C(N)=O)cc1` (stereo not drawn) [Example 147, 5-amino-1-(5,5-dimethyltetrahydrofuran-3-yl)-3-[4-[[(2-methoxybenzoyl)amino]methyl]phenyl]pyrazole-4-carboxamide], the IC50 at Recombinant EGFR is 1000 to 10000 nM; in assay [1] (Homo sapiens, OCI-Ly10, 72 h), 10 to 100 nM; in assay [2], under 10 nM; in assay [3] it was under 10 nM.

On to `COc1ccccc1C(=O)NCc1ccc(-c2nn(C3CCCC3)c(N)c2C(N)=O)c(F)c1F` [Example 155, 5-amino-1-cyclopentyl-3-[2,3-difluoro-4-[[(2-methoxybenzoyl)amino]methyl]phenyl]pyrazole-4-carboxamide], for which the IC50 was 1000 to 10000 nM on Recombinant EGFR; 10 to 100 nM in assay [1] (Homo sapiens, OCI-Ly10, 72 h); under 10 nM in assay [2]; under 10 nM in assay [3].

As to `COc1ccccc1C(=O)NCc1ccc(-c2nn(C3CCOCC3)c(N)c2C(N)=O)c(F)c1` [Example 99, 5-amino-3-[2-fluoro-4-[[(2-methoxybenzoyl)amino]methyl]phenyl]-1-tetrahydropyran-4-yl-pyrazole-4-carboxamide], the IC50 was over 10000 nM on Recombinant EGFR; 100 to 1000 nM in assay [1] (Homo sapiens, OCI-Ly10, 72 h); under 10 nM in assay [2]; 10 to 100 nM in assay [3].

For `COc1ccccc1C(=O)NCc1ccc(-c2nn(C3CNCC3(F)F)c(N)c2C(N)=O)cc1F` (stereo not drawn) [Example 160, 5-amino-1-(4,4-difluoropyrrolidin-3-yl)-3-[3-fluoro-4-[[(2-methoxybenzoyl)amino]methyl]phenyl]pyrazole-4-carboxamide], the IC50 was 1000 to 10000 nM on Recombinant EGFR; 100 to 1000 nM in assay [1] (Homo sapiens, OCI-Ly10, 72 h); under 10 nM in assay [2]; 10 to 100 nM in assay [3].

For `COc1ccccc1C(=O)NCc1ccc(-c2nn(C3CCOC3)c(N)c2C(N)=O)cc1` (stereo not drawn) [Example 36, 5-Amino-3-[4-[[(2-methoxybenzoyl)amino]methyl]phenyl]-1-tetrahydrofuran-3-yl-pyrazole-4-carboxamide], the IC50 is 1000 to 10000 nM at Recombinant EGFR; 10 to 100 nM in assay [1] (Homo sapiens, OCI-Ly10, 72 h); under 10 nM in assay [2]; under 10 nM in assay [3].

In the case of `COc1ccccc1C(=O)NCc1ccc(-c2nn(C3CCCCC3)c(N)c2C(N)=O)cc1` [Example 18, 5-amino-1-cyclohexyl-3-[4-[[(2-methoxybenzoyl)amino]methyl]phenyl]pyrazole-4-carboxamide], the IC50 was 100 to 1000 nM on Recombinant EGFR; under 10 nM in assay [1] (Homo sapiens, OCI-Ly10, 72 h); 10 to 100 nM in assay [1]; under 10 nM in assay [2]; under 10 nM in assay [3].

In the case of `COc1ccccc1C(=O)NCc1cc(F)c(-c2nn(C3CCOCC3)c(N)c2C(N)=O)cc1F` [Example 148, 5-amino-3-[2,5-difluoro-4-[[(2-methoxybenzoyl)amino]methyl]phenyl]-1-tetrahydropyran-4-yl-pyrazole-4-carboxamide], the IC50 at Recombinant EGFR was over 10000 nM; in assay [1] (Homo sapiens, OCI-Ly10, 72 h), 100 to 1000 nM; in assay [2] it was under 10 nM; in assay [3], 10 to 100 nM.

Take `COc1ccccc1C(=O)NCc1ccc(-c2nn(C3CCC(C(=O)N(C)C)CC3)c(N)c2C(N)=O)cc1` (single isomer, unassigned) [Example 57b, 5-amino-1-[4-(dimethylcarbamoyl)cyclohexyl]-3-[4-[[(2-methoxybenzoyl)amino]methyl]phenyl]pyrazole-4-carboxamide]: the IC50 at Recombinant EGFR was 100 to 1000 nM; in assay [1] it was 100 to 1000 nM; in assay [2] it was under 10 nM; in assay [3], under 10 nM.

`COc1ccc(F)cc1C(=O)NCc1ccc(-c2nn(C3CN(C)CC3(F)F)c(N)c2C(N)=O)cc1` (stereo not drawn) [Example 199, 5-amino-1-(4,4-difluoro-1-methyl-pyrrolidin-3-yl)-3-[4-[[(5-fluoro-2-methoxy-benzoyl)amino]methyl]phenyl]pyrazole-4-carboxamide]: the IC50 at Recombinant EGFR is 1000 to 10000 nM; in assay [1] (Homo sapiens, OCI-Ly10, 72 h), 10 to 100 nM; in assay [2], under 10 nM; in assay [3] it was under 10 nM.

As to `COc1ccccc1C(=O)NCc1ccc(-c2nn(C3CCC(C(=O)N(C)C)CC3)c(N)c2C(N)=O)cc1` (single isomer, unassigned) [Example 57a, 5-amino-1-[4-(dimethylcarbamoyl)cyclohexyl]-3-[4-[[(2-methoxybenzoyl)amino]methyl]phenyl]pyrazole-4-carboxamide], the IC50 is 100 to 1000 nM on Recombinant EGFR, 10 to 100 nM in assay [1], under 10 nM in assay [2] and under 10 nM in assay [3].

`COc1ccc(F)cc1C(=O)NCc1ccc(-c2nn(C(C3CCCC3)C(F)(F)F)c(N)c2C(N)=O)cc1` (stereo not drawn) [Example 196, 5-Amino-1-(1-cyclopentyl-2,2,2-trifluoro-ethyl)-3-[4-[[(5-fluoro-2-methoxy-benzoyl)amino]methyl]phenyl]pyrazole-4-carboxamide]: the IC50 at Recombinant EGFR lay within 1000 to 10000 nM; in assay [1] (Homo sapiens, OCI-Ly10, 72 h), 100 to 1000 nM; in assay [2], 10 to 100 nM; in assay [3] it was 10 to 100 nM.

For the compound `CCNc1c(C(N)=O)c(-c2ccc(CNC(=O)c3ccccc3OC)cc2)nn1C1CCCC1` [Example 73, 1-cyclopentyl-5-(ethylamino)-3-[4-[[(2-methoxybenzoyl)amino]methyl]phenyl]pyrazole-4-carboxamide], the IC50 on Recombinant EGFR is 100 to 1000 nM; in assay [1] (Homo sapiens, OCI-Ly10, 72 h), 10 to 100 nM; in assay [2], under 10 nM; in assay [3], under 10 nM.

(Values after patent publication US11826351B2, “Compounds useful as kinase inhibitors” (Loxo Oncology, Inc., priority 2015, dated 2023).)
